Measurements from patent publication US8628938B2, “Polynucleotide encoding UDP-glucuronyl transferase” (Suntory Holdings Limited, priority 2007, dated 2014).

How the values were obtained:
Conditions in all cases: for glucuronosyl transfer activity to glycosyl acceptor substrate (in words): standard reaction conditions; for relative activity to each substrate, taking the activity to scutellarein as 100%: 100 μM glycosyl acceptor substrate, 2 mM UDP-glucuronic acid, pH 7.5, 30° C., 30 minutes
S1UGT = test: UDP-glucuronosyltransferase activity assay (HPLC) with recombinant S1UGT; type: biochemical, Scutellaria laeteviolacea v. yakusimensis
Experimental: (§1) Escherichia coli BL21 (DE3) was transformed with each plasmid obtained in 4-(1) above. The transformant obtained was shake cultured overnight at 37° C. in 4 ml of LB medium (10 g/l tryptone, 5 g/l yeast extract, 1 g/l NaCl) supplemented with 50 μg/ml of ampicillin. The culture broth, 4 ml, which reached the stationary phase, was inoculated into 80 ml of the medium with the same composition, followed by shake culture at 37° C. When the cell turbidity (OD600) reached approximately 0.5, 0.4 mM IPTG (isopropyl-β-thiogalactopyranoside) in a final concentration was added to the medium, followed by shake culture at 22° C. for 20 hours. All of the subsequent procedures were performed at 4° C. The transformants cultured were centrifuged (7,000×g, 15 mins.) to collect the cells, and 2 ml/g cell of Buffer S (20 mM sodium phosphate buffer (pH 7.4), 20 mM imidazole, 0.5 M NaCl, 14 mM β-mercaptoethanol) was added to the cells for suspension. Subsequently, ultrasonication was performed (15 secs.×8) followed by centrifugation (15,000×g, 10 mins.). To the supernatant obtained, 0.12% (w/v) polyethyleneimine in a final concentration was added to […], which was then allowed to stand for 30 minutes. The mixture was centrifuged (15,000×g, 10 mins.) and the supernatant was recovered as a crude enzyme solution. The crude enzyme solution was applied to His SpinTrap (GE Healthcare), which had been equilibrated with Buffer S, and centrifuged (70×g, 30 secs.). After washing with 600 μl of Buffer S, the protein bound to the column was stepwise eluted with 600 μl each of Buffer S containing 100, 200 and 500 mM imidazole. The buffer in each fraction eluted was replaced by 20 mM potassium phosphate buffer (pH 7.5) containing 14 mM β-mercaptoethanol, using Microcon YM-30 (Amicon). […] These fractions were mixed and used for analysis.
(§2) Standard reaction conditions are as follows. A reaction solution (2 mM UDP-glucuronic acid, 100 μM glycosyl acceptor substrate, 50 mM potassium phosphate buffer (pH 7.5), enzyme solution), 50 μl, was prepared and the enzyme solution was added to initiate the reaction at 30° C. for 30 minutes. The reaction was stopped by adding 50 μl of 0.5% TFA in CH3CN and provided for HPLC analysis. The conditions for HPLC are as follows: column, Develosil C30-UG-5 (4.6×150 mm); eluant A, 0.1% TFA/H2O; eluant B, 0.08% TFA/90% CH3CN; conditions A for elution (except for aurone, catechin, coumarine and phenylpropanoid), 0 min/5% B→18 min/100% eluant B'18.1 min/5% B→25 min/5% B; conditions B for elution (aurone, catechin, coumarine and phenylpropanoid), 0 min/5% B→20 min/50% eluant B→20.5 min/5% B→25 min/5% B; flow rate, 1 ml/min; detection wavelength: 280 and 350 nm.

AmUGTcg10 = test: UDP-glucuronosyltransferase activity assay (HPLC) with recombinant AmUGTcg10; type: biochemical, Antirrhinum majus
Experimental: as §1, §2

PfUGT50 = test: UDP-glucuronosyltransferase activity assay (HPLC) with recombinant PfUGT50; type: biochemical, Perilla frutescens
Experimental: as §1, §2

SiUGT23 = test: UDP-glucuronosyltransferase activity assay (HPLC) with recombinant SiUGT23; type: biochemical, Sesamum indicum
Experimental: as §2
cDNA containing full-length ORF of SiUGT23 derived from Sesamum indicum was amplified by a gene-specific primer set (SEQ ID NOs: 24 and 25). cDNA synthesized using total RNA extracted from sesame seeds was used as a template. SiUGT23 was incorporated into Escherichia coli expression vector as in UGT of Perilla frutescens, Scutellaria laeteviolacea v. yakusimensis and Antirrhinum majus in EXAMPLE 1 and recombinant SiUGT23 protein was expressed in the same way to assay the enzyme activity.

[1] = apigenin as glycosyl acceptor substrate

Row | Molecule | glucuronosyl transfer activity to glycosyl acceptor substrate (in words) (S1UGT) | glucuronosyl transfer activity to glycosyl acceptor substrate (in words) (AmUGTcg10) | glucuronosyl transfer activity to glycosyl acceptor substrate (in words) (PfUGT50) | glucuronosyl transfer activity to glycosyl acceptor substrate (in words) (SiUGT23) | relative activity to each substrate, taking the activity to scutellarein as 100% (S1UGT) [%] | relative activity to each substrate, taking the activity to scutellarein as 100% (SiUGT23) [%] | relative activity to each substrate, taking the activity to scutellarein as 100% (PfUGT50) [%] | other results
1 | COc1cc(/C=C/CO)ccc1O [coniferyl alcohol] | no activity | no activity | no activity | – | – | – | – | –
2 | O=C(O)[C@H]1O[C@H](OP(=O)(O)OP(=O)(O)OC[C@H]2O[C@@H](n3ccc(=O)[nH]c3=O)[C@H](O)[C@@H]2O)[C@H](O)[C@@H](O)[C@@H]1O [UDP-glucuronic acid] | – | – | – | – | – | – | – | activity to UDP-activated glycosyl donor (S1UGT; [1]): showed the activity; activity to UDP-activated glycosyl donor (AmUGTcg10; [1]): showed the activity; activity to UDP-activated glycosyl donor (PfUGT50; [1]): showed the activity
3 | COc1cc(-c2cc(=O)c3c(O)cc(O)cc3o2)ccc1O [chrysoeriol] | – | – | – | – | 0.02 | 6 | 18 | relative activity to each substrate, taking the activity to scutellarein as 100% (AmUGTcg10): 18%
4 | Oc1ccc(C2OCC3C(c4ccc(O)c(O)c4)OCC23)cc1O (single isomer, unassigned; (+)) [EC2, (+)-episesamin catechol 2] | shows the activity | – | – | – | – | – | – | –
5 | catechin | no activity | no activity | no activity | no activity | – | – | – | –
6 | O=C1/C(=C/c2ccc(O)c(O)c2)Oc2cc(O)cc(O)c21 [aureusidin] | no activity | – | – | – | – | 13 | 40 | relative activity to each substrate, taking the activity to scutellarein as 100% (AmUGTcg10): 2%
7 | O=c1ccc2cc(O)c(O)cc2o1 [esculetin] | – | no activity | no activity | – | 0.3 | 0.03 | – | –
8 | O=C(O[C@@H]1Cc2c(O)cc(O)cc2O[C@@H]1c1cc(O)c(O)c(O)c1)c1cc(O)c(O)c(O)c1 [epigallocatechin gallate] | no activity | no activity | no activity | no activity | – | – | – | –
9 | COc1ccc(-c2cc(=O)c3c(O)cc(O)cc3o2)cc1O [diosmetin] | – | – | – | – | 0.3 | 4 | 62 | relative activity to each substrate, taking the activity to scutellarein as 100% (AmUGTcg10): 26%
10 | O=C(O)/C=C/c1ccc(O)c(O)c1 [caffeic acid] | – | – | – | no activity | – | – | – | –
11 | Oc1ccc([C@H]2OC[C@H]3[C@@H]2CO[C@@H]3c2ccc3c(c2)OCO3)cc1O [SC1, (+)-sesamin catechol 1] | shows the activity | – | shows the activity | – | – | – | – | –
12 | O=c1c(-c2ccc(O)cc2)coc2cc(O)cc(O)c12 [genistein] | – | no activity | no activity | no activity | 1 | – | – | –
13 | O=c1c(-c2ccc(O)cc2)coc2cc(O)ccc12 [daidzein] | – | no activity | no activity | no activity | 0.3 | – | – | –
14 | Oc1ccc([C@H]2OC[C@H]3[C@@H]2CO[C@@H]3c2ccc(O)c(O)c2)cc1O [SC2, (+)-sesamin catechol 2] | shows the activity | – | – | – | – | – | – | –

Second part, led by results:

Row | glucuronosyl transfer activity to glycosyl acceptor substrate (in words) (S1UGT) | glucuronosyl transfer activity to glycosyl acceptor substrate (in words) (AmUGTcg10) | glucuronosyl transfer activity to glycosyl acceptor substrate (in words) (PfUGT50) | glucuronosyl transfer activity to glycosyl acceptor substrate (in words) (SiUGT23) | relative activity to each substrate, taking the activity to scutellarein as 100% (S1UGT) [%] | relative activity to each substrate, taking the activity to scutellarein as 100% (SiUGT23) [%] | relative activity to each substrate, taking the activity to scutellarein as 100% (PfUGT50) [%] | Molecule | other results
15 | no activity | no activity | no activity | no activity | – | – | – | O=c1cc(-c2ccc(O)c(O)c2)oc2c([C@@H]3O[C@H](CO)[C@@H](O)[C@H](O)[C@H]3O)c(O)cc(O)c12 [orientin] | –
16 | – | – | – | – | 14 | 18 | 3 | O=c1c(O)c(-c2ccc(O)cc2)oc2cc(O)cc(O)c12 [kaempferol] | relative activity to each substrate, taking the activity to scutellarein as 100% (AmUGTcg10): 28%
17 | shows the activity | – | – | – | – | – | 9 | O=c1c(O)c(-c2cc(O)c(O)c(O)c2)oc2cc(O)cc(O)c12 [myricetin] | –
18 | no activity | no activity | no activity | – | – | 0.3 | – | O=c1cc(-c2ccc(O)cc2)oc2cc(O)c([C@@H]3O[C@H](CO)[C@@H](O)[C@H](O)[C@H]3O)c(O)c12 [isovitexin] | –
19 | – | – | – | – | 1.1 | 14.0 | 87.9 | O=c1cc(-c2cc(O)c(O)c(O)c2)oc2cc(O)cc(O)c12 [tricetin] | relative activity to each substrate, taking the activity to scutellarein as 100% (AmUGTcg10): 23.8%
20 | – | – | – | – | 6 | 2 | 3 | O=C1C[C@@H](c2ccc(O)cc2)Oc2cc(O)cc(O)c21 [naringenin] | relative activity to each substrate, taking the activity to scutellarein as 100% (AmUGTcg10): 15%
21 | shows the activity | shows the activity | shows the activity | shows the activity | – | – | – | Oc1ccc(C=Cc2cc(O)cc(O)c2)cc1 [resveratrol] | –
